15 compounds from US20260378560A1, “APPROACHES TO DESIGNING AND PERFORMING COMPRESSED BIOLOGICAL EXPERIMENTS AND SYSTEMS FOR IMPLEMENTING THE SAME” (EXVIVO LABS INC., priority 2023, published 2026) can be followed below.

For experiment [1], the system named is REH. Description: Cell viability (CellTiter Glo), compressed perturbation pools with informed pool design, MAX-based deconvolution, REH.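 For all read-outs here: higher DRS means a larger drug effect.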 The settings on record: REH; for DRS: None (measured individually), informed pool design table; for DRS from MAX-based deconvolution: Samples, 7 Pick 3 informed perturbation pools. Here is the method:
(§1) Total cell viability was measured for each sample using an ATP-based luminescence assay (i.e., CellTiter Glo). Each cancer drug was then screened at multiple concentrations ranging from one nM to ten μM in order to generate a dose-response curve and calculate a DRS for each cancer cell line.
(§2) Each cancer drug was cultured with target cells individually. At the end of the screen, samples were either analyzed individually or compressed into pools for analysis. The library was compressed alphabetically into ten cohorts, each of which contained seven cancer drugs present in three out of the seven pools, as shown in Table VII. Said another way, the screening platform 210 generated a “7 pick 3” compressed library by assigning the cancer drugs among different pools. […] The library was also compressed into ten cohorts with pools designed based on information known about each cancer drug, as shown in Table VIII. After cell viability measurement and DRS calculation, the DRS of each cancer drug in the samples generated based on the pools were deconvoluted and compared to the DRS for each cancer drug measured individually.
(§3) In parallel to the exemplary sample compression screen covered in Table VII, perturbations were compressed into pools and then screened. The pools were designed using drug class as a feature with two compression rules (or simply “rules”). The first rule required that drugs from the same class be separated into different cohorts (i.e., mutually exclusive groups of pools). […] A benefit of compressing perturbations is the ability to measure additive, antagonistic, and synergistic effects between drugs in the same pool. However, these effects can negatively impact deconvolution of individual drug effects. Therefore, combinations of drugs for which evidence of clinical toxicity exists can be assigned to different pools in accordance with an informed pooling operation. As new preclinical or clinical evidence of toxic combinations becomes available, the rules implemented by the screening platform 210—and more specifically, its algorithm for compressing members of a library—can be updated accordingly.
(§4) In MAX-based deconvolution, an assumption of neutrality between the compressed perturbations is made. In other words, the perturbation with the largest effect is assumed to be masking the effects, if any, of the other perturbations in the pool. For SUM- and MAX-based deconvolution, qualitative deconvolution is first performed to rank the perturbations in each pool based on size of expected effect. Qualitative deconvolution, as described above, ranks the perturbations in a pool from largest effect size to smallest effect size. The ranking is based on the overlap of each perturbation's unique subset of pools with the highest and lowest measured pools. The perturbation with the largest effect is expected to be present in the pools with the highest measured signal or corresponding metric (e.g., DRS), while the perturbation with the smallest effect is expected to be present in the pools with the lowest measured signal or corresponding metric (e.g., DRS).
(§5) For MAX-based deconvolution, the highest ranked perturbation in the rank order is first assigned an effect size based on the pool with the lowest measured signal or corresponding metric (e.g., DRS) that it is present in. Said another way, the screening platform 210 can identify the highest ranked perturbation in the rank order and then assign an effect size based on the measured signal or corresponding metric (e.g., DRS) of the “weakest” pool in which the highest ranked perturbation is included. The screening platform 210 can repeat this step for the next highest ranked perturbation, and so on until the measurements for each pool have been assigned to one of the perturbations. The effects for the remaining perturbations can be assigned a value of zero, since it is assumed that their effect is masked by the perturbation with the largest effect in each pool.
For orientation: ATP-based viability assays read luminescence as a measure of living cells.

The test system of experiment [2] is REH. Description: Cell viability (CellTiter Glo), library of cancer drugs, individual or sample compression with randomized (alphabetical) pools, REH. In kind it is cell-based. The settings on record: REH; for DRS: None (measured individually); for DRS from deconvolution: Samples, 7 Pick 3 randomized (alphabetical) sample pools. Here is the method:
as §1, §2
(§6) In SUM-based deconvolution, an assumption of additivity is used to quantify the individual effects of each perturbation on each target. Additivity implies that each perturbation effect on each target is positively contributing to the overall effect measured for that pool. This is an accurate assumption for certain experiments, such as when targets or samples are compressed. When targets are pooled—or when samples containing different targets are pooled—the effect of each perturbation on each individual target is diluted. In other words, each perturbation has an isolated effect on a target in culture, and the sum total of the isolated effects are measured when pooled. Therefore, SUM-based deconvolution breaks down the sum total measured for a pool and assigns estimated fractional effects to each compressed perturbation or target in the pool. The screening platform 210 used SUM-based deconvolution for all target and sample compression experiments described above.

Experiment [3] concerns MOLT-4. Description: Cell viability (CellTiter Glo), library of cancer drugs, individual or sample compression with randomized (alphabetical) pools, MOLT-4. The settings on record: for DRS: MOLT-4, None (measured individually); for DRS from deconvolution: MOLT-4, Samples, 7 Pick 3 randomized (alphabetical) sample pools. It counts as cell-based. As to the method:
as §1, §2, §6

Experiment [4] relates to MOLT-4. Description: Cell viability (CellTiter Glo), compressed perturbation pools with informed pool design, MAX-based deconvolution, MOLT-4.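 For all read-outs here: higher DRS means a larger drug effect.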 The settings on record: for DRS: MOLT-4, None (measured individually), informed pool design table; for DRS from MAX-based deconvolution: MOLT-4, Samples, 7 Pick 3 informed perturbation pools. Here is the method: as §1, §2, §3, §4, §5

The structures appear in SMILES notation.

In the case of `Cn1cnc2c(F)c(Nc3ccc(Br)cc3Cl)c(C(=O)NOCCO)cc21` [Selumetinib], the DRS amounted to 3.91 in experiment [1], 0.00 in experiment [2], 0.40 in experiment [3] and 2.74 in experiment [4]. For the same compound, the “DRS from MAX-based deconvolution” value was 4.43 in experiment [1] and 3.41 in experiment [4]. Besides, the DRS from deconvolution in experiment [2] and in experiment [3] was 0.00 in each case.
Turning to `C=C1C[C@@H]2[C@H](CC[C@]3(C)C(=O)CC[C@@H]23)[C@@]2(C)C=CC(=O)C=C12` [Exemestane], the DRS is given as 1.84 in experiment [1], 0.00 in experiment [2], 0.00 in experiment [3] and 1.04 in experiment [4]. The “DRS from MAX-based deconvolution” value in experiment [1] and in experiment [4] was 0.00 throughout. In addition, the DRS from deconvolution in experiment [2] and in experiment [3] was 0.00 throughout.
Take `O=C(CCCCCCC(=O)Nc1ccccc1)NO` [Vorinostat]: the DRS in experiment [1] is on record as 2.01; in experiment [2] it was 12.12; in experiment [3], 13.42; in experiment [4], 1.84. For the same compound, the “DRS from MAX-based deconvolution” value in experiment [1] and in experiment [4] was 0.00 each time. Moreover, the DRS from deconvolution was 12.11 in experiment [2] and 13.67 in experiment [3].
In the case of `O=C(c1cc(Cc2n[nH]c(=O)c3ccccc23)ccc1F)N1CCN(C(=O)C2CC2)CC1` [Olaparib], the DRS in experiment [1] amounted to 1.84; in experiment [2], 2.58; in experiment [3] it was 5.28; in experiment [4], 0.24. The “DRS from MAX-based deconvolution” value in experiment [1] and in experiment [4] was 0.00 in each case. The results for the DRS from deconvolution in experiment [2] and in experiment [3] were 2.61 and 5.41, respectively.
In the case of `Cc1cnc(Nc2ccc(OCCN3CCCC3)cc2)nc1Nc1cccc(S(=O)(=O)NC(C)(C)C)c1` [Fedratinib], the DRS in experiment [1] came to 8.20; in experiment [2] it was 4.94; in experiment [3] it was 4.84; in experiment [4], 2.70. Further, the “DRS from MAX-based deconvolution” value in experiment [1] is on record as 9.03; in experiment [4], 3.88. For the same compound, the values for the DRS from deconvolution in experiment [2] and in experiment [3] were 5.00 and 4.67, respectively.
Turning to `C[C@@H]1CCN(C(=O)CC#N)C[C@@H]1N(C)c1ncnc2[nH]ccc12` [Tofacitinib], the DRS in experiment [1] is 3.15; in experiment [2], 0.20; in experiment [3], 0.00; in experiment [4], 2.96. Also, the “DRS from MAX-based deconvolution” value in experiment [1] is given as 4.06; in experiment [4] it was 0.00. In addition, the DRS from deconvolution in experiment [2] and in experiment [3] was 0.00 in each case.
For `CNC(=O)c1cc(Oc2ccc(NC(=O)Nc3ccc(Cl)c(C(F)(F)F)c3)cc2)ccn1` [Sorafenib], the DRS in experiment [1] stood at 1.78; in experiment [2] it was 0.53; in experiment [3] it was 0.33; in experiment [4], 0.88. Also, the “DRS from MAX-based deconvolution” value in experiment [1] and in experiment [4] was 0.00 each time. The DRS from deconvolution amounted to 0.44 in experiment [2] and 0.25 in experiment [3].
With `O=C(c1ccc(F)c(F)c1Nc1ccc(I)cc1F)N1CC(O)([C@@H]2CCCCN2)C1` [Cobimetinib], the DRS in experiment [1] is given as 0.00; in experiment [2], 0.00; in experiment [3], 0.00; in experiment [4], 1.60. Further, the “DRS from MAX-based deconvolution” value in experiment [1] was determined as 0.00; in experiment [4], 1.60. For the same compound, the DRS from deconvolution in experiment [2] and in experiment [3] was 0.00 in each case.
Take `O=C(Nc1cnn2ccc(N3CCC[C@@H]3c3cc(F)ccc3F)nc12)N1CC[C@H](O)C1` [Larotrectinib]: the DRS in experiment [1] was 0.74; in experiment [2], 0.00; in experiment [3] it was 0.00; in experiment [4], 0.74. The “DRS from MAX-based deconvolution” value in experiment [1] and in experiment [4] was 0.00 in each case. The DRS from deconvolution in experiment [2] and in experiment [3] was 0.00 in each case.
For `CCc1nc(C(N)=O)c(Nc2ccc(N3CCC(N4CCN(C)CC4)CC3)c(OC)c2)nc1NC1CCOCC1` [Gilteritinib], the DRS in experiment [1] is 0.20; in experiment [2], 0.00; in experiment [3], 0.00; in experiment [4] it was 0.00. Also, the “DRS from MAX-based deconvolution” value in experiment [1] and in experiment [4] was 0.00 each time. In addition, the DRS from deconvolution in experiment [2] and in experiment [3] was 0.00 throughout.
Regarding `CCN(CC)CCNC(=O)c1c(C)[nH]c(/C=C2\C(=O)Nc3ccc(F)cc32)c1C` [Sunitinib], the DRS in experiment [1] is given as 3.10; in experiment [2], 0.06; in experiment [3], 0.56; in experiment [4], 2.60. Besides, the “DRS from MAX-based deconvolution” value in experiment [1] and in experiment [4] was 0.00 in each case. For the same compound, the figures for the DRS from deconvolution in experiment [2] and in experiment [3] were 0.00 and 0.50, respectively.
With `CC(C)C[C@H](NC(=O)CNC(=O)c1cc(Cl)ccc1Cl)B(O)O` [Ixazomib], the DRS in experiment [1] was 0.00; in experiment [2], 15.29; in experiment [3], 13.99; in experiment [4] it was 0.00. Further, the “DRS from MAX-based deconvolution” value in experiment [1] and in experiment [4] was 0.00 throughout. In addition, the DRS from deconvolution in experiment [2] was 15.74; in experiment [3], 14.23.
In the case of `CS(=O)(=O)CCNCc1ccc(-c2ccc3ncnc(Nc4ccc(OCc5cccc(F)c5)c(Cl)c4)c3c2)o1` [Lapatinib], the DRS in experiment [1] was 6.99; in experiment [2], 0.74; in experiment [3], 0.74; in experiment [4], 5.79. Also, the “DRS from MAX-based deconvolution” value in experiment [1] is recorded as 8.02. The DRS from deconvolution in experiment [2] was 0.81; in experiment [3], 0.71.
Turning to `COc1cc2nccc(Oc3ccc(NC(=O)C4(C(=O)Nc5ccc(F)cc5)CC4)cc3)c2cc1OC` [Cabozantinib], the DRS in experiment [1] turned out to be 0.53; in experiment [2], 8.20; in experiment [3], 2.70; in experiment [4] it was 0.33. The “DRS from MAX-based deconvolution” value in experiment [1] and in experiment [4] was 0.00 throughout. Further, the DRS from deconvolution in experiment [2] was 9.30; in experiment [3], 9.82.
Turning to `Cc1cc(Nc2ncc(Cl)c(Nc3ccccc3S(=O)(=O)C(C)C)n2)c(OC(C)C)cc1C1CCNCC1` [Ceritinib], the DRS in experiment [1] is given as 10.87; in experiment [2], 0.60; in experiment [3], 0.00; in experiment [4], 6.77. For the same compound, the entries for the “DRS from MAX-based deconvolution” value in experiment [1] and in experiment [4] were 12.65 and 6.77, respectively. Moreover, the results for the DRS from deconvolution in experiment [2] and in experiment [3] were 0.60 and 0.00, respectively.
